The source of these data is publication PMC7567103 (Nature Communications, 2020).

Holding throughout (type): cell-based
The target in assay [1] is T1, GHRHR T192A (Homo sapiens, UniProt Q02643, T192A).
T1 construct: GHRHR(23-423)-; HA signal peptide (replaces native signal M1-G22) (N); expressed in transfected cells; host or cells: HEK 293T, pcDNA3.1, transient
Nature of the assay: cAMP accumulation, T192A. Conditions: mean ± SEM, n ≥ 3. The text has this: (§1) Fig. 2 Molecular recognition of GHRH by GHRHR and comparison of that with LA-PTH–PTH1R and GLP-1–GLP-1R. a Detailed interaction between GHRH and the TMD pocket of GHRHR with hydrogen bonds shown as dotted lines. b, c Pairwise comparison of GHRH bound to GHRHR with GLP-1 and LA-PTH in complex with their corresponding receptors, showing the relative positions of peptide ligands. Lime green, GHRHR; blue, GHRH; red, PTH1R and LA-PTH; purple, GLP-1R and GLP-1. d–f The effects of mutation in the ligand-binding pocket on cAMP accumulation. cAMP levels were measured in wild-type (WT) receptor and alanine mutants in ECL1, 2, and 3 (d), TM1, 2, and 3 (e), and TM5, 6, and 7 (f). cAMP signals were normalized to the maximum response of WT and concentration–response curves were analyzed using a three-parameter logistic equation. Data shown are means ± S.E.M. of at least three independent experiments (n = 3–5), conducted in triplicate. Source data are provided as a Source data file.
(§2) GHRH-stimulated cAMP accumulation was measured by a LANCE Ultra cAMP kit (PerkinElmer). […] After 1 h RT incubation, TR-FRET signals (excitation: 320 nm, emission: 615 and 665 nm) were measured by an EnVision (PerkinElmer).
Background: cAMP levels reflect the balance of adenylyl cyclase and phosphodiesterase activity.

Assay [2] concerns the target T2, GHRHR E123A (Homo sapiens, UniProt Q02643, E123A).
T2 construct: GHRHR(23-423)-; HA signal peptide (replaces native signal M1-G22) (N); expressed in transfected cells; host or cells: HEK 293T, pcDNA3.1, transient
Briefly: cAMP accumulation, E123A. Conditions: mean ± SEM, n ≥ 3.
Text: as §1, §2

Assay [3] has as its target T3, GHRHR A271R (Homo sapiens, UniProt Q02643, A271R).
T3 construct: GHRHR(23-423)-; HA signal peptide (replaces native signal M1-G22) (N); expressed in transfected cells; host or cells: HEK 293T, pcDNA3.1, transient
Briefly: cAMP accumulation, A271R. Conditions: mean ± SEM, n ≥ 3.
Text: as §1, §2

Assay [4] addresses T4, GHRHR E122A (Homo sapiens, UniProt Q02643, E122A).
T4 construct: GHRHR(23-423)-; HA signal peptide (replaces native signal M1-G22) (N); expressed in transfected cells; host or cells: HEK 293T, pcDNA3.1, transient
Briefly: cAMP accumulation, E122A. Conditions: mean ± SEM, n ≥ 3.
Text: as §1, §2

Assay [5] addresses T5, GHRHR W282A (Homo sapiens, UniProt Q02643, W282A).
T5 construct: GHRHR(23-423)-; HA signal peptide (replaces native signal M1-G22) (N); expressed in transfected cells; host or cells: HEK 293T, pcDNA3.1, transient
Nature of the assay: cAMP accumulation, W282A. Particulars: mean ± SEM, n ≥ 3.
Text: as §1, §2

Assay [6] has as its target T6, GHRHR F126A (Homo sapiens, UniProt Q02643, F126A).
T6 construct: GHRHR(23-423)-; HA signal peptide (replaces native signal M1-G22) (N); expressed in transfected cells; host or cells: HEK 293T, pcDNA3.1, transient
Briefly: cAMP accumulation, F126A. Particulars: mean ± SEM, n ≥ 3.
Text: as §1, §2

For assay [7], the target named is T7, GHRHR(23-405)-15AA-LgBiT-2MBP (Homo sapiens, UniProt Q02643).
T7 construct: 24 h after transfection with GHRHR(23-423), GHRHR(23-405), GHRHR(23-405)-LgBiT-2MBP, or HA-Flag-GHRHR (WT and mutants); HA signal peptide (replaces native signal M1-G22) (N); expressed in transfected cells; host or cells: HEK 293 T
T7 sequence (Q02643 23-405): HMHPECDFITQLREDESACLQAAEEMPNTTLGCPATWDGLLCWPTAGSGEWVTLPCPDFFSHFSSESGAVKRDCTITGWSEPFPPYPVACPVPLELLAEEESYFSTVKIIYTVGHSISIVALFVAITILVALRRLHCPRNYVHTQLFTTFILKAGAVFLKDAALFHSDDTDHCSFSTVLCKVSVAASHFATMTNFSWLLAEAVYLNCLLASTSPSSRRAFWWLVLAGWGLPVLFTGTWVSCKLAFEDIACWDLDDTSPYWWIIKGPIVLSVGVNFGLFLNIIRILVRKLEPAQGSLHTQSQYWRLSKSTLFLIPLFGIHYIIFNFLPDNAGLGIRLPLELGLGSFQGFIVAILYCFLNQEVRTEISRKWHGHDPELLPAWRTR
Briefly: cAMP accumulation, construct GHRHR(23-405)-15AA-LgBiT-2MBP (Supplementary Fig. 2b). Conditions: HEK 293T; mean ± SEM, n = 8-10. Here is the method: GHRH-stimulated cAMP accumulation was measured by a LANCE Ultra cAMP kit (PerkinElmer). Briefly, 24 h after transfection with GHRHR(23-423), GHRHR(23-405), GHRHR(23-405)-LgBiT-2MBP, or HA-Flag-GHRHR (WT and mutants), HEK 293 T cells (3000/well in 384-well white plates, PerkinElmer) were digested by 0.2% (w/v) EDTA and 5 μL stimulation buffer (HBSS supplemented with 5 mM HEPES, 0.5 mM IBMX, and 0.1% (w/v) BSA, pH 7.4). Different concentrations (5 μL) of GHRH were then added and the stimulation lasted for 30 min at RT. The reaction was stopped by adding 5 μL Eu-cAMP tracer and 5 μL ULight-anti-cAMP. After 1 h RT incubation, TR-FRET signals (excitation: 320 nm, emission: 615 and 665 nm) were measured by an EnVision (PerkinElmer).
223 Supplementary Ta b l e 1. Effects of GHRH-mediated cAMP accumulation.
Receptor cAMP Cell surface expression Binding
pEC50 Emax (% WT) (% WT) pIC50 […]
225 to determine pEC50 and Emax values. pEC50 is the negative logarithm of the molar
226 concentration of agonist that induced half the maximal response. Cell surface […]
228 Flag antibody (Sigma-Aldrich, 1:300); Donkey anti-Mouse Alexa Fluor 488-
229 conjugated secondary antibody, (ThermoFisher Scientific, 1:1000)] on the […]
231 Binding data were analyzed using a three-parameter logistic equation to […]
234 determine statistical difference. *P<0.01; ND, not determined.

The target in assay [8] is T8, GHRHR E361A (Homo sapiens, UniProt Q02643, E361A).
T8 construct: GHRHR(23-423)-; HA signal peptide (replaces native signal M1-G22) (N); expressed in transfected cells; host or cells: HEK 293 T
T8 sequence (Q02643 23-423 E361A): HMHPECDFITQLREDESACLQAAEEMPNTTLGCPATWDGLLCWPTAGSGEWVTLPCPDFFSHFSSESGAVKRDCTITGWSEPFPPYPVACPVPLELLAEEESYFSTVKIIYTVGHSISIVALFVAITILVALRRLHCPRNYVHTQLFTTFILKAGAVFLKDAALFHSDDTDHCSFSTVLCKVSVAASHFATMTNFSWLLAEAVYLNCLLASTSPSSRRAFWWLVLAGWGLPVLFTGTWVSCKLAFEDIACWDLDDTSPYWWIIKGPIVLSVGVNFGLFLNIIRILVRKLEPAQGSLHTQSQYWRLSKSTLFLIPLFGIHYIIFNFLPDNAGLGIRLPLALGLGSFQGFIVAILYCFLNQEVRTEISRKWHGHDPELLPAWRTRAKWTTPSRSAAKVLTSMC
Nature of the assay: cAMP accumulation, E361A. Conditions: mean ± SEM, n ≥ 3.
Text: as §1, §2

In assay [9] the target is T9, GHRHR L119A (Homo sapiens, UniProt Q02643, L119A).
T9 construct: GHRHR(23-423)-; HA signal peptide (replaces native signal M1-G22) (N); expressed in transfected cells; host or cells: HEK 293T, pcDNA3.1, transient
T9 sequence (Q02643 23-423 L119A): as the sequence (Q02643 23-423 E361A) above, with L97A, A339E counted along it
Briefly: cAMP accumulation, L119A. Particulars: mean ± SEM, n ≥ 3.
Text: as §1, §2

Assay [10] addresses T10, GHRHR D276A (Homo sapiens, UniProt Q02643, D276A).
T10 construct: GHRHR(23-423)-; HA signal peptide (replaces native signal M1-G22) (N); expressed in transfected cells; host or cells: HEK 293T, pcDNA3.1, transient
Nature of the assay: cAMP accumulation, D276A. Conditions: mean ± SEM, n ≥ 3.
Text: as §1, §2

In assay [11] the target is T11, GHRHR F187A (Homo sapiens, UniProt Q02643, F187A).
T11 construct: GHRHR(23-423)-; HA signal peptide (replaces native signal M1-G22) (N); expressed in transfected cells; host or cells: HEK 293T, pcDNA3.1, transient
T11 sequence (Q02643 23-423 F187A): as the sequence (Q02643 23-423 E361A) above, with F165A, A339E counted along it
Briefly: cAMP accumulation, F187A. Particulars: mean ± SEM, n ≥ 3.
Text: as §1, §2

Assay [12] concerns the target T12, GHRHR A271F (Homo sapiens, UniProt Q02643, A271F).
T12 construct: GHRHR(23-423)-; HA signal peptide (replaces native signal M1-G22) (N); expressed in transfected cells; host or cells: HEK 293T, pcDNA3.1, transient
Briefly: cAMP accumulation, A271F. Particulars: mean ± SEM, n ≥ 3.
Text: as §1, §2

As usually defined, the EC50 is the concentration needed to bring the measured effect to its halfway point. A lower EC50 goes with a more potent agent.

SMILES strings stand for the structures.

T6 sequence (Q02643 23-423 F126A): as the sequence (Q02643 23-423 E361A) above, with F104A, A339E counted along it
T10 sequence (Q02643 23-423 D276A): as the sequence (Q02643 23-423 E361A) above, with D254A, A339E counted along it
T4 sequence (Q02643 23-423 E122A): as the sequence (Q02643 23-423 E361A) above, with E100A, A339E counted along it
T5 sequence (Q02643 23-423 W282A): as the sequence (Q02643 23-423 E361A) above, with W260A, A339E counted along it
T2 sequence (Q02643 23-423 E123A): as the sequence (Q02643 23-423 E361A) above, with E101A, A339E counted along it
T3 sequence (Q02643 23-423 A271R): as the sequence (Q02643 23-423 E361A) above, with A249R, A339E counted along it
T1 sequence (Q02643 23-423 T192A): as the sequence (Q02643 23-423 E361A) above, with T170A, A339E counted along it
T12 sequence (Q02643 23-423 A271F): as the sequence (Q02643 23-423 E361A) above, with A249F, A339E counted along it

For the molecule `CC[C@H](C)[C@H](NC(=O)[C@H](C)NC(=O)[C@H](CC(=O)O)NC(=O)[C@H](C)NC(=O)[C@@H](N)Cc1ccc(O)cc1)C(=O)N[C@@H](Cc1ccccc1)C(=O)N[C@H](C(=O)N[C@@H](CC(N)=O)C(=O)N[C@@H](CO)C(=O)N[C@@H](Cc1ccc(O)cc1)C(=O)N[C@@H](CCCNC(=N)N)C(=O)N[C@@H](CCCCN)C(=O)N[C@H](C(=O)N[C@@H](CC(C)C)C(=O)NCC(=O)N[C@@H](CCC(N)=O)C(=O)N[C@@H](CC(C)C)C(=O)N[C@@H](CO)C(=O)N[C@@H](C)C(=O)N[C@@H](CCCNC(=N)N)C(=O)N[C@@H](CCCCN)C(=O)N[C@@H](CC(C)C)C(=O)N[C@@H](CC(C)C)C(=O)N[C@@H](CCC(N)=O)C(=O)N[C@@H](CC(=O)O)C(=O)N[C@H](C(=O)N[C@@H](CCSC)C(=O)N[C@@H](CO)C(=O)N[C@@H](CCCNC(=N)N)C(=O)N[C@@H](CCC(N)=O)C(=O)N[C@@H](CCC(N)=O)C(=O)NCC(=O)N[C@@H](CCC(=O)O)C(=O)N[C@@H](CO)C(=O)N[C@@H](CC(N)=O)C(=O)N[C@@H](CCC(N)=O)C(=O)N[C@@H](CCC(=O)O)C(=O)N[C@@H](CCCNC(=N)N)C(=O)NCC(=O)N[C@@H](C)C(=O)N[C@@H](CCCNC(=N)N)C(=O)N[C@@H](C)C(=O)N[C@@H](CCCNC(=N)N)C(=O)N[C@@H](CC(C)C)C(N)=O)[C@@H](C)CC)C(C)C)[C@@H](C)O` [GHRH, Growth hormone-releasing hormone], the EC50 in [1] was 0.229 nM; in [2], 0.0724 nM; in assay [3], 0.105 nM; in assay [4] it was 0.11 nM; in assay [5] it was 13.2 nM; in assay [6], 1.1 nM. For the same molecule, the EC50 in assay [7] was 2.88 nM; in assay [8], 1.05 nM; in assay [9] it was 0.724 nM; in [10], 0.331 nM; in assay [11], 1.15 nM; in assay [12], 0.186 nM. In addition, the Emax in assay [1] was found to be 103.11±1.18 % WT; in assay [2] it was 100.33±1.34 % WT; in assay [3], 100.81±1.19 % WT; in [4] it was 98.38±3.26 % WT; in assay [5], 101.88±5.62 % WT; in [6], 98.92±0.84 % WT. Further, the Emax is reported as 78.82±10.52 % WT in assay [7]; 18.75±4.38 % WT in assay [8]; 98.67±1.48 % WT in [9]; 102.04±0.51 % WT in [10]; 101.68±1.52 % WT in [11]; 103.70±0.64 % WT in [12].
